Reference: US20240197816A1, “COMPOSITION AND METHOD FOR PROLONG SURVIVAL OF TRANSPLANT AND RECIPIENT” (NovMetaPharma Co., Ltd., priority 2022, published 2024)

Experiments:
[1] = system: transplanted kidney (F344 to LEWIS rats); test: Weekly ultrasound (color Doppler) of blood flow to the transplanted kidney; type: in vivo, rat; conditions: CHP treatment group, ultrasound once a week
Procedure: In the control group, CHP administration group (F344 to LEWIS rats), and inbred (LEWIS to LEWIS rats) kidney transplantation model, ultrasound was performed once a week to check the smooth flow of blood to the transplanted kidney.

[2] = system: transplanted kidney (F344 to LEWIS rats); test: Graft kidney tissue findings (histology); type: in vivo, rat; conditions: TPL+CHP group; graft tissue on the 45th day
From the text: These phenomena are believed to be an effect of CHP that can suppress the acute rejection reaction that occurs within days after transplantation. In FIG. 5, graft kidney tissue findings on the 7th day of rejection in the left […] control group (Syngenic TPL) and on the 45th day in the CHP treated group (TPL+CHP).

[3] = system: transplanted kidney (F344 to LEWIS rats); test: Evaluation of graft function (BUN, serum creatinine) after kidney transplantation; type: in vivo, rat
From the text: Individual data points represent the following groups: the syngeneic transplant recipients (Syngenic; n=3), transplant recipients without CHP administration (TPL; n=5), and the CHP-treated transplant recipients (TPL+CHP; n=5). […] This significant improvement in key renal function indicators highlights a promising advancement in post-transplant care, reducing the reliance on immunosuppressive therapies, and prolonging recipient survival and enhancing graft survival.

[4] = system: transplanted kidney; Nrf2; test: PAS and Nrf2 immunohistochemistry of transplanted kidney five days after transplantation; type: in vivo, rat
From the text: All animals were sacrificed at five days from post-kidney transplantation. The administration of CHP to the transplant recipient group decreased tubular atrophy, tubulitis, endothelialitis, leukocyte infiltration, while increasing the level of antioxidative stress marker Nrf2 (Nuclear factor erythroid-2-related factor). These findings highlight the potential of CHP to exert protective (e.g., anti-inflammatory and antioxidative) effects in the transplantation rat model.

[5] = system: F344 donor kidney transplanted into LEWIS rats; test: Survival of recipients in rat allogeneic kidney transplantation, minor MHC incompatible model; type: in vivo; conditions: CHP 40 mg/kg i.v. 1 hour before transplantation, then 40 mg/kg i.p. three times a week, n=4, untreated control 9 days (n=7)
Procedure: Donor surgery: After removing abdominal hair from donor rat under general anesthesia, the surgical area was disinfected and covered with surgical cloth. After a midline incision in the abdominal wall, one kidney was exposed, and 8 iu/kg of heparin was administered intravenously, followed by nephrectomy.
Table Surgery: Removed unnecessary tissue to anastomosis the artery, vein, and ureter of the extracted kidney to the blood vessel and ureter of the recipient, and covered and stored with gauze soaked in saline at 4° C.
Recipient surgery: After removal of abdominal hair of recipient rat under general anesthesia, the surgical area was disinfected and covered with surgical cloth. After a midline incision in the abdominal wall, the right kidney was exposed, the kidney was resected, and the donor renal artery and vein were anastomized end to side to the […]. The ureter of donor's kidney was sutured after incising the bladder. After confirming that the perfusion of the kidney was good (FIG. 1), the abdominal wall was closed, and the animal was placed on a blanket at 37° C. to recover.
As a minor MHC incompatible model, a kidney transplantation model F344 rats were used as donors and LEWIS rats were used as recipients. After resection of the recipients' right kidney on Day 0 (DO), the donors' kidney was transplanted into the recipients. […]

O=C1N[C@@H](Cc2cnc[nH]2)C(=O)N2CCC[C@@H]12 [CHP, Cyclo histidine-proline]
blood flow to the transplanted kidney (ultrasound) [1]: blood flow to the kidney was smooth
borderline changes suggestive of acute cell-mediated rejection and microvascular inflammation [2]: rapidly decreased
focal glomerular necrosis and severe tubulointerstitial changes [2]: decrease
function of the grafted organ ([3]; CHP-treated animals, entire period of survival, weekly measurements over 46 weeks): fully function
serum creatinine ([3]; TPL+CHP group at 3 weeks after transplantation, syngenic group 0.71 mg/dL): 0.82 mg/dL
serum creatinine levels ([3]; five days post-transplantation, TPL+CHP n=5, TPL without CHP 7.23±0.39, p<0.0001): 1.32 ± 0.13 mg/dL
blood urea nitrogen (BUN) ([3]; five days post-transplantation, TPL+CHP n=5, TPL without CHP 193.5±8.54, p<0.0001): 41.98 ± 5.69 mg/dL
level of antioxidative stress marker Nrf2 ([4]; Nrf2 immunohistochemistry): increasing
tubular atrophy, tubulitis, endothelialitis, leukocyte infiltration ([4]; PAS staining): decreased
mean survival day (SMD) [5]: 326 days
